Data: PubChem BioAssay AID2820 (Sanford-Burnham Center for Chemical Genomics, 2010)

The compounds below were run against G-protein coupled receptor 55 (Homo sapiens) (UniProt Q9Y2T6) (assay: blockade of LPI-induced GPR55 arrestin translocation – imaging, U2OS, beta-arrestin-GFP, LPI agonist, set 2, SAR follow-up (AID 2820)). Settings: LPI antagonism.
Sequence of G-protein coupled receptor 55 (Homo sapiens) (Q9Y2T6 whole entry, looked up): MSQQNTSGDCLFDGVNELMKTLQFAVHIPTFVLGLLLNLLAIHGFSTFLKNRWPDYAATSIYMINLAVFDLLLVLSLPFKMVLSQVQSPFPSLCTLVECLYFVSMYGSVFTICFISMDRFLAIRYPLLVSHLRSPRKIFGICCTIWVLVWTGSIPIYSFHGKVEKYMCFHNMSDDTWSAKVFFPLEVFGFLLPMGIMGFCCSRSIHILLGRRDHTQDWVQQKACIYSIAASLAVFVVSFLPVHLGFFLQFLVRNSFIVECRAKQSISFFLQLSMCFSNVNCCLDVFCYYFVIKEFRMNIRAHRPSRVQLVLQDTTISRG
`Cc1ccc(C2(C(=O)N3CCC(n4nc(-c5ccccc5)oc4=O)CC3)CC2)cc1` showed an IC50 of 1080 nM.
`O=C(c1ccco1)N1CCN(c2nc(C3CC3)nc3sc4c(c23)CCCC4)CC1` was tested, and the IC50 was 865 nM.
For `Cc1cc(OCC(=O)Nc2ccc(S(=O)(=O)NC3=NCCCCC3)cc2)c(C(C)C)cc1Cl`, the IC50 was 1090 nM.
`Cc1nc(N2CCN(C(=O)c3ccco3)CC2)c2c3c(sc2n1)CCCC3` showed an IC50 of 702 nM.
